In patent US12564609B2, “Hematopoietic stem cell engraftment with a combination of agents” (The Board of Trustees of the Leland Stanford Junior …, priority 2020, dated 2026):

System: donor HSC engraftment
Assay: Allogeneic (minor MHC-mismatched) transplantation, donor chimerism in peripheral blood
Type: in vivo, BALB.B mice
Protocol: A. Schematic of allogeneic transplantation protocol. BALB.B mice (H-2^b, Thy1.2, CD45.2) were recipients for B6 donors (H-2b, Thy1.1, CD45.1); ACK2 was injected 10 days prior transplantation, AZA was administered days −5 through −1 in dose 2.5 or 5 mg/kg/d, anti-CD4/CD8 were injected in dose 100 μg at days −2, −1 and at the day of transplant (day 0); recipients received 15×10^6 WBM cells or 5×10^4 LSK at d0; chimerism analysis was assessed by flow cytometry using CD45 marker to distinguish between donor and recipient total, myeloid (Gr1^+Mac1^+), B-cells (CD19^+CD3^−) and T-cells (CD19^−CD3^+). B. Multilineage donor-derived chimerism after conditioning with ACK2, AZA 2.5 mg/kg, AZA 5 mg/kg or their combination and transplantation of 15×10^6WBM cells. Chimerism levels from peripheral blood are shown at 4, 14 and 26 weeks post-HCT. Data represent mean±SD (n=4 per group). C. Multilineage donor-derived chimerism in peripheral blood at 4, 14 and 26 weeks following conditioning with single agent ACK2, single agent AZA 5 mg/kg/d or their combination and transplantation of 5×10^4 Lin^− Sca1^+c-Kit^+ cells (LSK). Data represent mean±SD (n=3-5 per group) between the donor and recipient.
Mice. […]
Bone marrow cell preparation and HSC isolation for transplantation experiments. […] Cells were filtered through 70-μm filter, lysed in ACK lysis buffer and counted on Invitrogen Countess. […]

`Nc1ncn([C@@H]2O[C@H](CO)[C@@H](O)[C@H]2O)c(=O)n1` [AZA, 5-Azacytidine] was tested, and the donor engraftment (AZA 5 mg/kg/d, anti-CD4/CD8, 15×10^6 allogeneic WBM cells) was “successful donor engraftment was achieved” and the “total donor chimerism over time” value (AZA alone group, 15×10^6 allogeneic WBM cells) was “noted to decrease”.
